The target of assay [1] is T1, Porcine pancreatic alpha-amylase (Sus scrofa, UniProt P00690).
T1 sequence (P00690 16-511): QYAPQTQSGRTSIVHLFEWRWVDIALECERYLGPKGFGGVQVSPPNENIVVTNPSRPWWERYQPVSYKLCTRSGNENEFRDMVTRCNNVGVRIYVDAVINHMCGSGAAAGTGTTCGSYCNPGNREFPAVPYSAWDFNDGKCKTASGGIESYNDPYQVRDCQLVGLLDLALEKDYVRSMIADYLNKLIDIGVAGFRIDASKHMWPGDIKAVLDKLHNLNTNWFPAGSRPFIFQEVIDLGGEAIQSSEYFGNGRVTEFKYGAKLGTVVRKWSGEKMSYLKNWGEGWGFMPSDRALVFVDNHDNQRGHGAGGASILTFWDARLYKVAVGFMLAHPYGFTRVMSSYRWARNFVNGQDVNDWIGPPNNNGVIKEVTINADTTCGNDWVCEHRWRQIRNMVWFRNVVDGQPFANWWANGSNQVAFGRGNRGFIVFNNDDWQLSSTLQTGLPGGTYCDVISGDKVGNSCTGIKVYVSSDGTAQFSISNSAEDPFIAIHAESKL
The experiment in a line: Enzyme activity inhibition test, porcine pancreatic alpha-amylase. In kind it is biochemical. On the procedure:
(§1) The test steps of this example are as follows. Firstly, the Syzygium zeylanicum L. extract was mixed a buffer (potassium phosphate buffer) with 1:9 volume to produce a Syzygium zeylanicum L. extract solution. The Syzygium zeylanicum L. extract solution and alpha-glucosidase (enzyme) were mixed into the buffer at a volume ratio of 1:1. In this example, 15 μl extract solution and the enzyme were separately mixed into 100 μl buffer at 37° C. for 20 minutes. Then, 50 μl matrix p-nitrophenyl glucopyranoside (pNPG) was added at 37° C. for 40 minutes; then 100 μl, 1 mol/L of Na2CO3 was added to stop the reaction. Finally, the absorbance of OD 410 nm was measured, and calculated the inhibition activity of alpha-glucosidase. The above experimental steps was the subsequent enzyme activity test method of the present invention, and only different conditions, such as extraction solvent, reaction temperature or pH were changed.
(§2) The enzyme activity inhibition test of Example 2 was used in this example. […] The enzymes were S. cerevisiae alpha-glucosidase, rat alpha-glucosidase, B. stearothermophilus alpha-glucoside), porcine pancreatic alpha-amylase, B. subtilis alpha-amylase, and human saliva alpha-amylase.

For assay [2], the target named is S. cerevisiae alpha-glucosidase (Saccharomyces cerevisiae, UniProt P53341). In kind it is biochemical. On the procedure:
as §1, §2

Experimental findings from patent publication US20190321431A1, “PREPARATION AND APPLICATION OF Syzygium zeylanicum L. EXTRACT” (Tamkang University, priority 2018, published 2019) are described below.

The structures appear in SMILES notation.

Chain of S. cerevisiae alpha-glucosidase (P53341 whole entry): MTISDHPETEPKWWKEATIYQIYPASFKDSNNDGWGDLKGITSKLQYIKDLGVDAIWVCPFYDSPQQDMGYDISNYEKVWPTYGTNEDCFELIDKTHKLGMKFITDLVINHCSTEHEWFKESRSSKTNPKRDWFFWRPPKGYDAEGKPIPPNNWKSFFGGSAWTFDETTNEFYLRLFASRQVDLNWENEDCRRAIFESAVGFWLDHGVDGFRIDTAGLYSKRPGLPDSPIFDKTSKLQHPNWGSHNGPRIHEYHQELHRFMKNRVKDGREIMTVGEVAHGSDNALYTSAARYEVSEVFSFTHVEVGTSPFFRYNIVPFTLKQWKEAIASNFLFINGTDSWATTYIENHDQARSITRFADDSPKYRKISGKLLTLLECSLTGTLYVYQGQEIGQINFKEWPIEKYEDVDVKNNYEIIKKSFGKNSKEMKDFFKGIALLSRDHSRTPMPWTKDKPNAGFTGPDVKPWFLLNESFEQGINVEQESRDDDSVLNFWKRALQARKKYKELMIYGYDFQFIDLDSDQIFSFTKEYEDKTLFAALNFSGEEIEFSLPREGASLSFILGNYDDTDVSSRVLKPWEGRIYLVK

As for `C[C@H]1O[C@H](O[C@H]2[C@H](O)[C@@H](O)[C@@H](O[C@H]3[C@H](O)[C@@H](O)C(O)O[C@@H]3CO)O[C@@H]2CO)[C@H](O)[C@@H](O)[C@@H]1N[C@H]1C=C(CO)[C@@H](O)[C@H](O)[C@H]1O` (some centres unmarked) [Acarbose], the “Maximum Inhibitory Activity” value is listed as 91 ± 2.5% in assay [1] and 64 ± 2.3% in assay [2].
